Source: patent US7157480B2, “Use of pramipexole to treat amyotrophic lateral sclerosis” (priority 2001, dated 2007)
Where two headings read alike, the source gives them in different places.

Experiments:
caspase 3 [1] = format: cell-based, human
Experimental: (§1) SH-SY5Y human neuroblastoma cells were obtained from the American Tissue Culture Collection (www.atcc.org) and maintained in culture in a replicating state. For caspase assays and cytochrome C release studies they were grown in T75 flasks with DMEM/high glucose containing 10% fetal bovine serum, antibiotic/antimicotic (100 IU/ml of penicillin, 100 μg/ml of streptomycin sulfate, 0.25 μg/ml of amphotericin B) and 50 μg/ml of uridine and 100 μg/ml of pyruvate in a 5% CO2 atmosphere at 37° C. to approximately full confluence (2×10^7 cell/flask). They were then incubated with 5 mM methylpyridinium iodide (MPP+; Sigma; www.sigma-aldrich.com) or 100 μM 25–35 or 35–25 beta amyioid peptides (Bachem; www.bachem.com) for varying times, then harvested. For cell death studies, the cells were plated into 96 well black-bottom plates and grown for 24 hours in DMEM media before being exposed to toxin.
(§2) After exposure to MPP+ or beta amyloid peptide, cells were collected in PBS and centrifuged at 450×g for 6 minutes at 4° C. Cell pellets were resuspended in a hypotonic cell lysis buffer [25 mM HEPES, 5 mM MgCl2, 5 mM EDTA, […] and protease inhibitor cocktail (Sigma Chemical)] at a concentration of 2×10^7 cells/100 μl of lysis buffer. Lysates were subjected to four cycles of freezing and thawing. Cell lysates were then centrifuged at 16,000×g for 30 minutes at 4° C. The supernatant fractions were collected, and protein content was measured by Lowry assay (BioRad). 100 μg of protein was used to measure caspase activity in 96 well plates and was assayed in quadruplicate. The activity was measured using the assay buffer and the protocol provided by the manufacturers. (Biomol, caspase 3; Promega, caspases 3 and 9). […] Chromogen absorbance (p-NA) was measured on an OptiMax plate reader or chromogen fluorescence (AMC) on a SpectraMax Gemini plate reader at zero time and after 30 minutes of incubation at 37 degrees to estimate relative caspase activities. Chromogen signal at zero time was subtracted from the readings at 30 minutes.
(§3) R(+) and S(−) PPX (gifts of Pharmacia Corporation) were obtained as their dihydrochloride salts and dissolved directly into culture media. Bongkreckic acid, an antagonist of the ATP binding site on the adenine nucleotide translocator, was provided as a solution in 1M NH4OH. Aristolochic acid (sodium salt), a phospholipase A2 inhibitor, was obtained from Sigma Chemical Co. In the caspase experiments, drugs were added 1 hour before MPP+ or beta amyloid peptide. In the calcein/cell death experiments, drugs were added 4 hours before MPP+.

SH-SY5Y cells = format: cell-based, human
Experimental: as §1
Cell death was estimated by measuring loss of calcein retention with the “Live-Dead” assay (Molecular Probes; www.molecularprobes.com) in cells grown in 96 well plates and incubated with calcein-AM, according to manufacturer's instructions. Calcein signals were assayed in a SpectraMax Gemini adjustable fluorescent plate reader (Molecular Devices). Calcein fluorescence from cells preincubated with methanol was subtracted from all readings as background. Each assay was performed with 8 wells/condition, which were averaged. 3–8 independent experiments were performed to evaluate a broad range of concentrations of S(−) and R(+) PPX in this paradigm.
as §3

caspase 9 = format: cell-based, human
Experimental: as §1, §2, §3

oxidative stress [2] = test: MPTP-induced forebrain oxidative stress (2,3-DHBA) in mice; format: in vivo, C57BL/6 mice; conditions: MPTP 30 mg/kg s.c.
Experimental: Male C57BL/6 mice received daily R(+) pramipexole dihydrochloride in drinking water for 8 weeks at doses calculated to provide 0, 10, 30 or 100 mg/kg/day. On the day of the study the mice were injected with 30 mg/kg s.c. of the neurotoxin N-methyl-4-phenyl-1,2,3,6-tetrahydropyridine (MPTP) to increase oxidative stress in the brain. One hour later the mice were injected with 100 mg/kg i.p. of sodium salicylate. One hour after salicylate injection the mice were killed and forebrains analyzed for 2,3-dihydroxybenzoic acid (2,3-DHBA) content.

[3] = 8 week toxicology study in mice, pathology of major organs; format: in vivo; conditions: drinking water, 8 weeks
Experimental: Toxicology studies have also been conducted and no evidence of adverse effects were detected. In particular, an 8 week toxicology study was performed in the mice given R(+) PPX in their drinking water.

[4] = system: D2 family dopamine receptors; conditions: cited from earlier work
[5] = relative to S(−) pramipexole; cited from earlier work
caspase 3 [6] = conditions: SH-SY5Y
Experimental: as §1, with “For cell death studies, the cells were plated into 96 well black-bottom plates and grown for 24 hours in DMEM media before being exposed to toxin.” left out
After exposure to MPP+ or beta amyloid peptide, cells were collected in PBS and centrifuged at 450×g for 6 minutes at 4° C. […] The supernatant fractions were collected, and protein content was measured by Lowry assay (BioRad). […] The activity was measured using the assay buffer and the protocol provided by the manufacturers. […] Chromogen absorbance (p-NA) was measured on an OptiMax plate reader or chromogen fluorescence (AMC) on a SpectraMax Gemini plate reader at zero time and after 30 minutes of incubation at 37 degrees to estimate relative caspase activities. Chromogen signal at zero time was subtracted from the readings at 30 minutes. […]

oxidative stress [7] = conditions: 12 SALS subjects
Experimental: The present study was conducted in two phases. […] These participants underwent aspirin loading with subsequent 2,3-DHBA analysis. After receiving 1.3 grams of aspirin po, blood was drawn 2, 3, and 4 hours later. Serum was separated, frozen and stored at −80 degrees. Aliquots of serum were subsequently coded and blinded for 2,3-DHBA and salicylate assays.
The subjects received 1.3 grams of aspirin po, and blood was drawn 3 hours later. Following acquisition of these baseline samples, SALS participants began pramipexole therapy. Dosage escalation was performed similar to PD patients with an attempt made to reach 1.5 mg t.i.d.-q.i.d. as the final dose, following a 7 week titration. After each participant was on his/her highest pramipexole dose for three weeks, the aspirin loading study was performed once again. […] Each participant was then offered the opportunity to continue with pramipexole treatment.
Preparation of serum: 0.9 ml of serum at 4° C. was mixed with 0.2 ml of 1 M perchloric acid and centrifuged at 15,000 rpm for 10 minutes in a refrigerated microcentrifuge.
Assay for 2,3-DHBA: 20 uL of supernatant were injected in duplicate onto a C18 “Catecholamine” Adsorbosphere column (Alltech) perfused at 0.6 ml/min with buffer consisting of 125 ml/L acetonitrile, 1.5 gn/L of sodium heptane sulfonate, 3 ml/L triethylamine, 100 mg/L of Na2 EDTA with final pH adjusted to 2.8 with phosphoric acid. Detection utilized a CouloChem II flow-through electrochemical detector (ESA, with the following settings: guard cell=+600 mV; E1=−100 mV; E2=+400 mV). 2,3-DHBA eluted at 10–10.5 minutes under these conditions.
Assay for salicylate: 50 uL of supernatant were injected in duplicate onto a C8 Kromosil HPLC column (Alltech) perfused at 0.8–1.0 ml/min with 70% methanol/30% water/0.5% trifluoroacetic acid. Salicylate eluted at 6–7 minutes under these conditions and was detected by ultraviolet absorption at 315 nm.

[8] = ALS subjects who completed dose escalation, 3–6 mg per day
Experimental: Following acquisition of these baseline samples, SALS participants began pramipexole therapy. Dosage escalation was performed similar to PD patients with an attempt made to reach 1.5 mg t.i.d.-q.i.d. as the final dose, following a 7 week titration.

## C[n+]1ccc(-c2ccccc2)cc1.[I-] [MPP+, methylpyridinium iodide]
Caspase 3 [1]; SH-SY5Y, 5 mM MPP+, by 24 hours
  increase of caspase 3 activity: about 2 fold
SH-SY5Y cells; SH-SY5Y, 5 mM MPP+ alone, 24 hours
  reduction of calcein uptake: about 60%

## CCCN[C@@H]1CCc2nc(N)sc2C1.Cl.Cl [R(+) PPX, R(+)-2-amino-4,5,6,7-tetrahydro-6-propylaminobenzathiazole dihydrochloride]
Caspase 3 [1]; SH-SY5Y, 5 mM MPP+ 24 hours, 1 mM PPX added 1 hour before, p<0.05 vs MPP+
  MPP+-induced caspase 3 activation: suppressed
Caspase 9; SH-SY5Y, 5 mM MPP+ 8 hr, 1 mM PPX
  MPP+-induced increases in caspase 9 activity: blocked
SH-SY5Y cells; 3 nM PPX, 5 mM MPP+ 24 hours, p=0.035
  calcein retention in the presence of MPP+, enantiomer comparison: greater calcein retention than S(−) PPX
SH-SY5Y cells; SH-SY5Y, 5 mM MPP+ 24 hours, 30 nM PPX added 4 hours before, effect retained through 30 μM
  calcein uptake after MPP+: substantially restored
Oxidative stress [2]; 30 mg/kg/day in drinking water for 8 weeks
  forebrain oxidative stress produced by MPTP (2,3-DHBA): significantly reduced
Oxidative stress [2]; 100 mg/kg/day in drinking water for 8 weeks
  forebrain oxidative stress produced by MPTP (2,3-DHBA): significantly reduced
[3]
  pathological examination of all major organs: no lesions were found
[4]
  dopamine agonist activity: very little dopamine agonist activity
[5]
  potency to produce the side effects that result from the use of S(−) pramipexole: ≤ 1%

## CCCN[C@H]1CCc2nc(N)sc2C1 [S(−) PPX, S(−)-2-amino-4,5,6,7-tetrahydro-6-propylaminobenzathiazole]
Caspase 3 [1]
  MPP+-induced caspase 3 activation: suppressed
Caspase 9
  MPP+-induced increases in caspase 9 activity: blocked
Caspase 3 [6]; 100 μM beta amyloid 25–35
  reduction of the increases in caspase 3 activity following BA 25–35 peptide: about 70%
Caspase 3 [6]; drug alone without toxin
  effect on caspase 3 activity by itself: no suppressive effect
SH-SY5Y cells
  calcein retention in the presence of MPP+, enantiomer comparison: greater calcein retention than R(+) PPX
  calcein uptake after MPP+: substantially restored
Oxidative stress [7]; 3–6 mg per day oral, pre vs post treatment, 3 hours after 1.3 grams aspirin, p=0.015
  mean reduction of serum 2,3-DHBA concentration: about 45%
Oxidative stress [7]; 3–6 mg per day oral, pre vs post treatment, p=0.010
  average reduction of serum 2,3-DHBA normalized to salicylate levels: 59%
Oxidative stress [7]; without exception
  individual serum levels of 2,3-DHBA pre vs post treatment: reduced
[8]
  tolerability: well tolerated
[4]
  dopamine agonist activity: potent agonist

## COc1cccc2c1cc([N+](=O)[O-])c1c(C(=O)O)cc3c(c12)OCO3 [aristolochic acid, Aristolochic acid]
Caspase 3 [1]; SH-SY5Y, 5 mM MPP+ 24 hours, 25 μM aristolochic acid, p<0.05 vs MPP+
  MPP+-induced caspase 3 activation: prevented increases
Caspase 9; SH-SY5Y, 5 mM MPP+ 8 hr, 25 μM aristolochic acid
  MPP+-induced increases in caspase 9 activity: blocked

## CO[C@H](C/C=C\C=C\CC/C=C/C[C@H](C)/C=C/C(=C\C(=O)O)CC(=O)O)/C(C)=C\C=C(/C)C(=O)O [bongkreckic acid, Bongkreckic acid]
Caspase 3 [1]; SH-SY5Y, 5 mM MPP+ 24 hours, 250 μM bongkreckic acid, p<0.05 vs MPP+
  MPP+-induced caspase 3 activation: blocked
Caspase 9; SH-SY5Y, 5 mM MPP+ 8 hr, 250 μM bongkreckic acid
  MPP+-induced increases in caspase 9 activity: blocked
